# Calls of active or inactive are those of the source. The rule behind the calls is not given here.
# Tests used:
# HK-2 [1] = assay: Induction of autophagy in human HK-2 cells assessed as […] at 2.5 to 10 uM by Western blotting analysis; format: functional, cell-based; settings: dose 2.5-10 µM
# Lewis lung carcinoma [2] = assay: Antitumor activity against cisplatin-induced mouse Lewis lung carcinoma cell line xenografted C57BL/6J mouse assessed as inflammatory cell infiltration at 25 to 50 mg/kg, po preadministered with compound for 2 days followed by cisplatin addition on day 3 and measured 72 hrs post cisplatin administration by H and E staining based analysis; format: functional, organism-based; settings: dose 25-50 mg/kg, time 5.0 day
# HK-2 [3] = assay: Protection against cisplatin-induced apoptosis in human HK-2 cells assessed as reduction in BAX expression preincubated with compound for 2 hrs followed by cisplatin induction and measured after 48 hrs by Western blotting analysis; format: functional, cell-based; settings: dose 2.5-10 µM, time 50.0 hrs
# HK-2 [4] = assay: Inhibition of cisplatin-induced DNA damage in human HK-2 cells assessed as […] in comet tail length by comet assay; format: functional, cell-based; settings: dose 2.5-10 µM
# NCI-H1299 = assay: Cytotoxicity against human NCI-H1299 cells; format: functional, cell-based
# NCI-H460 = assay: Cytotoxicity against human NCI-H460 cells; format: functional, cell-based
# Cell membrane [5] = assay: Induction of mitochondrial membrane potential loss in human HK-2 cells at 2.5 to 10 uM by JC-1 staining based laser microscopic analysis; format: cell membranes; settings: dose 2.5-10 µM
# HK-2 [6] = assay: Upregulation of AKT gene expression in human HK-2 cells by KEGG analysis; format: functional, cell-based
# HK-2 [7] = assay: Effect on SLC47A1 mRNA level in human HK-2 cells by transcriptome sequencing analysis; format: functional, cell-based
# HK-2 [8] = assay: Effect on OCT2 mRNA level in human HK-2 cells by transcriptome sequencing analysis; format: functional, cell-based
# HK-2 [9] = assay: Inhibition of cisplatin-induced DNA damage in human HK-2 cells assessed as reduction in p-histone-H2AX level at 2.5 to 10 uM by Western blot analysis; format: functional, cell-based; settings: dose 2.5-10 µM
# HK-2 [10] = assay: Upregulation of PI3K gene expression in human HK-2 cells by KEGG analysis; format: functional, cell-based
# HK-2 [11] = assay: Reduction in intracellular cisplatin accumulation in human HK-2 cells by ICP-MS analysis; format: functional, cell-based; settings: dose 2.5-10 µM
# HK-2 [12] = assay: Effect on OCT1 mRNA level in human HK-2 cells by transcriptome sequencing analysis; format: functional, cell-based
# HK-2 [13] = assay: Protection against cisplatin-induced apoptosis in human HK-2 cells preincubated with compound for 2 hrs followed by cisplatin induction and measured after 48 hrs by FITC/PI staining based flow cytometry analysis; format: functional, cell-based; settings: dose 2.5-10 µM, time 50.0 hrs
# Cell membrane [14] = assay: Induction of mitochondrial membrane potential loss in human HK-2 cells assessed as increase in sirtuin 3 expression by Western blot analysis; format: cell membranes; settings: dose 2.5-10 µM
# HK-2 [15] = assay: Protection against cisplatin-induced apoptosis in human HK-2 cells assessed as improvement in cell number preincubated with compound for 2 hrs followed by cisplatin induction and measured after 48 hrs by light microscopic analysis; format: functional, cell-based; settings: dose 2.5-10 µM, time 50.0 hrs
# HK-2 [16] = assay: Effect on ATP7A mRNA level in human HK-2 cells by transcriptome sequencing analysis; format: functional, cell-based; settings: dose 2.5-10 µM
# [17] = Antitumor activity against cisplatin-induced mouse Lewis lung carcinoma cell line xenografted C57BL/6J mouse assessed as reduction in tumor mass at 25 to 50 mg/kg, po preadministered with compound for 2 days followed by cisplatin addition on day 3 and measured 72 hrs post cisplatin administration; format: functional; design: scale not given: the % may be the effect or the level left; settings: dose 25-50 mg/kg, time 5 day
# Cell membrane [18] = assay: Induction of mitochondrial membrane potential loss in human HK-2 cells assessed as increase in ATP5A1 expression by Western blot analysis; format: cell membranes; settings: dose 2.5-10 µM
# HK-2 [19] = assay: Upregulation of ATP7A level in human HK-2 cells at 2.5 to 10 uM by Western blot analysis; format: functional, cell-based; settings: dose 2.5-10 µM
# Mus musculus [20] = assay: Protection against cisplatin-induced nephrotoxicity in C57BL6/J mouse assessed as reduction in infiltration of inflammatory cells at 100 mg/kg, po preadministered with compound for 2 days followed by cisplatin addition on day 3 and measured 72 hrs post cisplatin administration by H and E staining based analysis; format: functional, organism-based; settings: time 5.0 day
# HK-2 [21] = assay: Upregulation of ATP7A mRNA level in human HK-2 cells at 2.5 to 10 uM by RT-qPCR analysis; format: functional, cell-based; settings: dose 2.5-10 µM
# HK-2 [22] = assay: Upregulation of ATP7B mRNA level in human HK-2 cells at 2.5 to 10 uM by RT-qPCR analysis; format: functional, cell-based; settings: dose 2.5-10 µM
# HK-2 [23] = assay: Effect on CTR1 mRNA level in human HK-2 cells by transcriptome sequencing analysis; format: functional, cell-based
# Mus musculus [24] = assay: Protection against cisplatin-induced nephrotoxicity in po dosed C57BL6/J mouse assessed as reduction in SCR level in kidney Preadministered with compound for 2 days followed by cisplatin addition on day 3 and measured 72 hrs post cisplatin administration; format: functional, organism-based; settings: dose 25-100 mg/kg, time 5.0 day
# HK-2 [25] = assay: Induction of autophagy in human HK-2 cells assessed as upregulation of PI3K class III expression at 2.5 to 10 uM by Western blotting analysis; format: functional, cell-based; settings: dose 2.5-10 µM
# HK-2 [26] = assay: Induction of autophagy in human HK-2 cells assessed as upregulation of AMPKalpha expression at 2.5 to 10 uM by Western blotting analysis; format: functional, cell-based; settings: dose 2.5-10 µM
# Lewis lung carcinoma [27] = assay: Antitumor activity against cisplatin-induced mouse Lewis lung carcinoma cell line xenografted in po dosed C57BL/6J mouse assessed as reduction in BUN level in serum preadministered with compound for 2 days followed by cisplatin addition on day 3 and measured 72 hrs post cisplatin administration; format: functional, organism-based; settings: dose 25-100 mg/kg, time 5.0 day
# HK-2 [28] = assay: Inhibition of cisplatin-induced DNA damage in human HK-2 cells assessed as reduction in cleaved-PARP level at 2.5 to 10 uM by Western blot analysis; format: functional, cell-based; settings: dose 2.5-10 µM
# HK-2 [29] = assay: Upregulation of CTR1 mRNA level in human HK-2 cells at 2.5 to 10 uM by RT-qPCR analysis; format: functional, cell-based; settings: dose 2.5-10 µM
# Lewis lung carcinoma [30] = assay: Cytotoxicity against mouse Lewis lung carcinoma cell line; format: functional, cell-based
# HK-2 [31] = assay: Effect on ATP7B mRNA level in human HK-2 cells by transcriptome sequencing analysis; format: functional, cell-based; settings: dose 2.5-10 µM
# HK-2 [32] = assay: Induction of autophagy in human HK-2 cells assessed as upregulation of ATG5 expression at 2.5 to 10 uM by Western blotting analysis; format: functional, cell-based; settings: dose 2.5-10 µM
# Cell membrane [33] = assay: Induction of mitochondrial membrane potential loss in human HK-2 cells assessed as increase in OPA1 expression by Western blot analysis; format: cell membranes; settings: dose 2.5-10 µM
# HK-2 [34] = assay: Induction of autophagy in human HK-2 cells assessed as upregulation of beclin1 expression at 2.5 to 10 uM by Western blotting analysis; format: functional, cell-based; settings: dose 2.5-10 µM
# HK-2 [35] = assay: Protection against cisplatin-induced apoptosis in human HK-2 cells assessed as improvement in cell morphology preincubated with compound for 2 hrs followed by cisplatin induction and measured after 48 hrs by light microscopic analysis; format: functional, cell-based; settings: dose 2.5-10 µM, time 50.0 hrs
# HK-2 [36] = assay: Upregulation of AMPK gene expression in human HK-2 cells by KEGG analysis; format: functional, cell-based
# HCT-116 = assay: Cytotoxicity against human HCT-116 cells; format: functional, cell-based
# HK-2 [37] = assay: Protection against cisplatin-induced apoptosis in human HK-2 cells assessed as reduction in cleaved caspase 3 expression preincubated with compound for 2 hrs followed by cisplatin induction and measured after 48 hrs by Western blot analysis; format: functional, cell-based; settings: dose 2.5-10 µM, time 50.0 hrs
# Mus musculus [38] = assay: Protection against cisplatin-induced nephrotoxicity in C57BL6/J mouse assessed as reduction in BUN level in kidney at 25 to 100 mg/kg, po preadministered with compound for 2 days followed by cisplatin addition on day 3 and measured 72 hrs post cisplatin administration; format: functional, organism-based; settings: dose 25-100 mg/kg, time 5.0 day
# HK-2 [39] = assay: Upregulation of ATP7B level in human HK-2 cells at 2.5 to 10 uM by Western blot analysis; format: functional, cell-based; settings: dose 2.5-10 µM
compound,measurement,setting,value
COc1c(CO)c(OC)c(C(=O)c2ccccc2)c2c1C[C@H]1CC/C(C)=C/CC(C)(C)/C=C/C[C@]1(C)O2,Activity,HK-2 [1],Active
same,Activity,Lewis lung carcinoma [2],Active
same,Activity,HK-2 [3],Dose-Dependent Effect
same,inhibition,HK-2 [4],Dose-Dependent Effect
same,Activity,NCI-H1299,Active
same,Activity,NCI-H460,Active
same,Activity,Cell membrane [5],Active
same,Activity,HK-2 [6],Active
same,Activity,HK-2 [7],inactive
same,Activity,HK-2 [8],inactive
same,inhibition,HK-2 [9],Active
same,Activity,HK-2 [10],Active
same,Activity,HK-2 [11],Dose-Dependent Effect
same,Activity,HK-2 [12],inactive
same,Activity,HK-2 [13],Dose-Dependent Effect
same,Activity,Cell membrane [14],Active
same,Activity,HK-2 [15],Dose-Dependent Effect
same,Activity,HK-2 [16],Dose-Dependent Effect
same,Activity,[17],28.1%
same,Activity,Cell membrane [18],Active
same,Activity,HK-2 [19],Active
same,Activity,Mus musculus [20],Active
same,Activity,HK-2 [21],Active
same,Activity,HK-2 [22],Active
same,Activity,HK-2 [23],inactive
same,Activity,Mus musculus [24],Dose-Dependent Effect
same,Activity,HK-2 [25],Active
same,Activity,HK-2 [26],Active
same,Activity,Lewis lung carcinoma [27],Active
same,inhibition,HK-2 [28],Active
same,Activity,HK-2 [29],Active
same,Activity,Lewis lung carcinoma [30],Active
same,Activity,HK-2 [31],Dose-Dependent Effect
same,Activity,HK-2 [32],Active
same,Activity,Cell membrane [33],Active
same,Activity,HK-2 [34],Active
same,Activity,HK-2 [35],Dose-Dependent Effect
same,Activity,HK-2 [36],Active
same,Activity,HCT-116,Active
same,Activity,HK-2 [37],Dose-Dependent Effect
same,Activity,Mus musculus [38],Active
same,Activity,HK-2 [39],Active
COc1c(C=O)c(OC)c(C(=O)c2ccccc2)c2c1CC1CC/C(C)=C/CC(C)(C)/C=C/CC1(C)O2 (centres undefined),Activity,HK-2 [1],Active
same,Activity,Lewis lung carcinoma [2],Active
same,Activity,HK-2 [3],Dose-Dependent Effect
same,inhibition,HK-2 [4],Dose-Dependent Effect
same,Activity,NCI-H1299,Active
same,Activity,NCI-H460,Active
same,Activity,Cell membrane [5],Active
same,Activity,HK-2 [6],Active
same,Activity,HK-2 [7],inactive
same,Activity,HK-2 [8],inactive
same,inhibition,HK-2 [9],Active
same,Activity,HK-2 [10],Active
same,Activity,HK-2 [11],Dose-Dependent Effect
same,Activity,HK-2 [12],inactive
same,Activity,HK-2 [13],Dose-Dependent Effect
same,Activity,Cell membrane [14],Active
same,Activity,HK-2 [15],Dose-Dependent Effect
same,Activity,HK-2 [16],Dose-Dependent Effect
same,Activity,[17],31.4%
same,Activity,Cell membrane [18],Active
same,Activity,HK-2 [19],Active
same,Activity,Mus musculus [20],Active
same,Activity,HK-2 [21],Active
same,Activity,HK-2 [22],Active
same,Activity,HK-2 [23],inactive
same,Activity,Mus musculus [24],Dose-Dependent Effect
same,Activity,HK-2 [25],Active
same,Activity,HK-2 [26],Active
same,Activity,Lewis lung carcinoma [27],Active
same,inhibition,HK-2 [28],Active
same,Activity,HK-2 [29],Active
same,Activity,Lewis lung carcinoma [30],Active
same,Activity,HK-2 [31],Dose-Dependent Effect
same,Activity,HK-2 [32],Active
same,Activity,Cell membrane [33],Active
same,Activity,HK-2 [34],Active
same,Activity,HK-2 [35],Dose-Dependent Effect
same,Activity,HK-2 [36],Active
same,Activity,HCT-116,Active
same,Activity,HK-2 [37],Dose-Dependent Effect
same,Activity,Mus musculus [38],Active
same,Activity,HK-2 [39],Active

# Source: ChEMBL document CHEMBL5550222, “Synthesis and Biological Evaluation of Novel Psidium Meroterpenoid Derivatives against Cisplatin-Induced Acute Kidney Injury” (J Med Chem, 2024)
